Tests used:
Assay type in all cases: in vivo
Design in all cases: key: 0 is no effect; 10 is complete control
[1] = tested on: duck salad (Heteranthera limosa); assay: Test B flood test
Method in brief: (§1)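 Plants were grown to the 2-leaf stage before treatment with test chemical, then held in a greenhouse for twelve to sixteen days. Injury was visually rated against untreated controls on a 0–10 scale, where 0 is no effect and 10 is complete control.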

rice (Oryza sativa) = assay: Test B flood test
Method in brief: as §1

[2] = tested on: bamyardgrass (Echinochloa crus-galli); assay: Test B flood test
Method in brief: as §1

[3] = tested on: smallflower flatsedge (Cyperus difformis); assay: Test B flood test
Method in brief: as §1

[4] = tested on: giant foxtail (Setaria faberii); assay: Test B pre-/postemergence
Text: (§2) Seeds of bedstraw (Galium aparine), blackgrass (Alopecurus myosuroides), broadleaf signalgrass (Brachiaria decumbens), cocklebur (Xanthium strumarium), corn (Zea mays), crabgrass (Digitaria sanguinalis), giant foxtail (Setaria faberii), lambsquarters (Chenopodium album), momingglory (Ipomoea hederacea), pigweed (Amaranthus retroflexus), rape (Brassica napus), soybean (Glycine max), sugar beet (Beta vulgaris), velvetleaf (Abutilon theophrasti), wheat (Triticum aestivum), wild oat (Avena fatua) and purple nutsedge (Cyperus rotundus) tubers were planted and treated preemergence with test chemicals formulated in a non-phytotoxic solvent mixture which included a surfactant.
(§3) At the same time, these crop and weed species were also treated with postemergence applications of test chemicals formulated in the same manner. Plants ranged in height from 2 to 18 cm (1- to 4-leaf stage) for postemergence treatments. Plant species in the flood test consisted of rice (Oryza sativa), smallflower flatsedge (Cyperus difformis), duck salad (Heteranthera limosa) and bamyardgrass (Echinochloa crus-galli) grown to the 2-leaf stage for testing. Treated plants and controls were maintained in a greenhouse for twelve to sixteen days, after which all species were compared to controls and visually evaluated. Plant response ratings, summarized in Table B, are based on a scale of 0 to 10 where 0 is no effect and 10 is complete control. A dash (−) response means no test result.

corn (Zea mays) = assay: Test B pre-/postemergence
Text: as §2, §3

[5] = tested on: wheat (Triticum aestivum); assay: Test B pre-/postemergence
Text: as §2, §3

[6] = tested on: purple nutsedge (Cyperus rotundus); assay: Test B pre-/postemergence
Text: as §2, §3

[7] = tested on: pigweed (Amaranthus retroflexus); assay: Test B pre-/postemergence
Text: as §2, §3

[8] = tested on: bedstraw (Galium aparine); assay: Test B pre-/postemergence
Text: as §2, §3

rape (Brassica napus) = assay: Test B pre-/postemergence
Text: as §2, §3

[9] = tested on: velvetleaf (Abutilon theophrasti); assay: Test B pre-/postemergence
Text: as §2, §3

[10] = tested on: broadleaf signalgrass (Brachiaria decumbens); assay: Test B pre-/postemergence
Text: as §2, §3

[11] = tested on: sugar beet (Beta vulgaris); assay: Test B pre-/postemergence
Text: as §2, §3

[12] = tested on: momingglory (Ipomoea hederacea); assay: Test B pre-/postemergence
Text: as §2, §3

[13] = tested on: cocklebur (Xanthium strumarium); assay: Test B pre-/postemergence; conditions: Preemergence
Text: as §2, §3

[14] = tested on: blackgrass (Alopecurus myosuroides); assay: Test B pre-/postemergence
Text: as §2, §3

wild oat (Avena fatua) = assay: Test B pre-/postemergence
Text: as §2, §3

[15] = tested on: crabgrass (Digitaria sanguinalis); assay: Test B pre-/postemergence
Text: as §2, §3

soybean (Glycine max) = assay: Test B pre-/postemergence
Text: as §2, §3

[16] = Rate 125 g/ha, Postemergence, flood test
[17] = Rate 250 g/ha, Postemergence (flood test species)
[18] = Rate 500 g/ha, Postemergence (flood test species)

`Cc1cnc(-c2ccccc2)nc1Cn1ccc(C(F)(F)F)n1` [Compound 7] was tested, and the “Plant response rating, Ducksalad” value [1, 16] was 0, the “Plant response rating, Ducksalad” value [1, 17] was 0 and the “Plant response rating, Ducksalad” value [1, 18] was 2. The “Plant response rating, Rice” value (rice (Oryza sativa); [16]) was 0, the “Plant response rating, Rice” value (rice (Oryza sativa); [17]) was 0 and the “Plant response rating, Rice” value (rice (Oryza sativa); [18]) was 0. The “Plant response rating, Barnyardgrass” value [2, 16] was 1, the “Plant response rating, Barnyardgrass” value [2, 17] was 1 and the “Plant response rating, Barnyardgrass” value [2, 18] was 2. The “Plant response rating, S. Flatsedge” value [3, 16] was 1, the “Plant response rating, S. Flatsedge” value [3, 17] was 2 and the “Plant response rating, S. Flatsedge” value [3, 18] was 4. For the same molecule, the “Plant response rating, Giant foxtail” value ([4]; Rate 125 g/ha, Postemergence) was 1, the “Giant foxtail plant response rating” value ([4]; Rate 125 g/ha, Preemergence) was 0 and the “Plant response rating, Giant foxtail” value ([4]; Rate 250 g/ha, Postemergence) was 1. For the same molecule, the “Plant response rating, Giant foxtail” value ([4]; Rate 250 g/ha, Preemergence) was 1, the “Plant response rating, Giant foxtail” value ([4]; Rate 500 g/ha, Postemergence) was 1 and the “Plant response rating, Giant foxtail” value ([4]; Rate 500 g/ha, Preemergence) was 5. For the same molecule, the “Plant response rating, Corn” value (corn (Zea mays); Rate 125 g/ha, Postemergence) was 1, the “Corn plant response rating” value (corn (Zea mays); Rate 125 g/ha, Preemergence) was 0 and the “Plant response rating, Corn” value (corn (Zea mays); Rate 250 g/ha, Postemergence) was 2. The “Plant response rating, Corn” value (corn (Zea mays); Rate 250 g/ha, Preemergence) was 0, the “Plant response rating, Corn” value (corn (Zea mays); Rate 500 g/ha, Postemergence) was 2 and the “Plant response rating, Corn” value (corn (Zea mays); Rate 500 g/ha, Preemergence) was 0. The “Plant response rating, Wheat” value ([5]; Rate 125 g/ha, Postemergence) was 0, the “Wheat plant response rating” value ([5]; Rate 125 g/ha, Preemergence) was 0 and the “Plant response rating, Wheat” value ([5]; Rate 250 g/ha, Postemergence) was 0. For the same molecule, the “Plant response rating, Wheat” value ([5]; Rate 250 g/ha, Preemergence) was 0, the “Plant response rating, Wheat” value ([5]; Rate 500 g/ha, Postemergence) was 0 and the “Plant response rating, Wheat” value ([5]; Rate 500 g/ha, Preemergence) was 0. For the same molecule, the “Plant response rating, Nutsedge” value ([6]; Rate 125 g/ha, Postemergence) was 0, the “Nutsedge plant response rating” value ([6]; Rate 125 g/ha, Preemergence) was 0 and the “Plant response rating, Nutsedge” value ([6]; Rate 250 g/ha, Postemergence) was 0. For the same molecule, the “Plant response rating, Nutsedge” value ([6]; Rate 250 g/ha, Preemergence) was 0, the “Plant response rating, Nutsedge” value ([6]; Rate 500 g/ha, Postemergence) was 0 and the “Plant response rating, Nutsedge” value ([6]; Rate 500 g/ha, Preemergence) was 0. For the same molecule, the “Plant response rating, Redroot pigweed” value ([7]; Rate 125 g/ha, Postemergence) was 3, the “Redroot pigweed plant response rating” value ([7]; Rate 125 g/ha, Preemergence) was 0 and the “Plant response rating, Redroot pigweed” value ([7]; Rate 250 g/ha, Postemergence) was 7. For the same molecule, the “Plant response rating, Redroot pigweed” value ([7]; Rate 250 g/ha, Preemergence) was 2, the “Plant response rating, Redroot pigweed” value ([7]; Rate 500 g/ha, Postemergence) was 7 and the “Plant response rating, Redroot pigweed” value ([7]; Rate 500 g/ha, Preemergence) was 2. For the same molecule, the “Plant response rating, Bedstraw” value ([8]; Rate 125 g/ha, Postemergence) was 3, the “Bedstraw plant response rating” value ([8]; Rate 125 g/ha, Preemergence) was 0 and the “Plant response rating, Bedstraw” value ([8]; Rate 250 g/ha, Postemergence) was 3. The “Plant response rating, Bedstraw” value ([8]; Rate 250 g/ha, Preemergence) was 0, the “Plant response rating, Bedstraw” value ([8]; Rate 500 g/ha, Postemergence) was 3 and the “Plant response rating, Bedstraw” value ([8]; Rate 500 g/ha, Preemergence) was 0. For the same molecule, the “Plant response rating, Rape” value (rape (Brassica napus); Rate 125 g/ha, Postemergence) was 5, the “Rape plant response rating” value (rape (Brassica napus); Rate 125 g/ha, Preemergence) was 0 and the “Plant response rating, Rape” value (rape (Brassica napus); Rate 250 g/ha, Postemergence) was 6. For the same molecule, the “Plant response rating, Rape” value (rape (Brassica napus); Rate 250 g/ha, Preemergence) was 0, the “Plant response rating, Rape” value (rape (Brassica napus); Rate 500 g/ha, Postemergence) was 7 and the “Plant response rating, Rape” value (rape (Brassica napus); Rate 500 g/ha, Preemergence) was 0. The “Plant response rating, Velvetleaf” value ([9]; Rate 125 g/ha, Postemergence) was 1, the “Velvetleaf plant response rating” value ([9]; Rate 125 g/ha, Preemergence) was 0 and the “Plant response rating, Velvetleaf” value ([9]; Rate 250 g/ha, Postemergence) was 1. For the same molecule, the “Plant response rating, Velvetleaf” value ([9]; Rate 250 g/ha, Preemergence) was 0, the “Plant response rating, Velvetleaf” value ([9]; Rate 500 g/ha, Postemergence) was 2 and the “Plant response rating, Velvetleaf” value ([9]; Rate 500 g/ha, Preemergence) was 0. For the same molecule, the “Plant response rating, B. signalgrass” value ([10]; Rate 125 g/ha, Postemergence) was 1, the “B. signalgrass plant response rating” value ([10]; Rate 125 g/ha, Preemergence) was 0 and the “Plant response rating, B. signalgrass” value ([10]; Rate 250 g/ha, Postemergence) was 1. The “Plant response rating, B. signalgrass” value ([10]; Rate 250 g/ha, Preemergence) was 0, the “Plant response rating, B. signalgrass” value ([10]; Rate 500 g/ha, Postemergence) was 1 and the “Plant response rating, B. signalgrass” value ([10]; Rate 500 g/ha, Preemergence) was 0. For the same molecule, the “Plant response rating, Sugarbeets” value ([11]; Rate 125 g/ha, Postemergence) was 3, the “Sugarbeets plant response rating” value ([11]; Rate 125 g/ha, Preemergence) was 0 and the “Plant response rating, Sugarbeets” value ([11]; Rate 250 g/ha, Postemergence) was 8. The “Plant response rating, Sugarbeets” value ([11]; Rate 250 g/ha, Preemergence) was 0, the “Plant response rating, Sugarbeets” value ([11]; Rate 500 g/ha, Postemergence) was 8 and the “Plant response rating, Sugarbeets” value ([11]; Rate 500 g/ha, Preemergence) was 1. The “Plant response rating, Morningglory” value ([12]; Rate 125 g/ha, Postemergence) was 1, the “Morningglory plant response rating” value ([12]; Rate 125 g/ha, Preemergence) was 0 and the “Plant response rating, Morningglory” value ([12]; Rate 250 g/ha, Postemergence) was 2. For the same molecule, the “Plant response rating, Morningglory” value ([12]; Rate 250 g/ha, Preemergence) was 0, the “Plant response rating, Morningglory” value ([12]; Rate 500 g/ha, Postemergence) was 5 and the “Plant response rating, Morningglory” value ([12]; Rate 500 g/ha, Preemergence) was 0. For the same molecule, the “Cocklebur plant response rating” value ([13]; Rate 125 g/ha) was 0, the “Plant response rating, Cocklebur” value ([13]; Rate 250 g/ha) was 0 and the “Plant response rating, Cocklebur” value ([13]; Rate 500 g/ha) was 0. For the same molecule, the “Plant response rating, Blackgrass” value ([14]; Rate 125 g/ha, Postemergence) was 0, the “Blackgrass plant response rating” value ([14]; Rate 125 g/ha, Preemergence) was 0 and the “Plant response rating, Blackgrass” value ([14]; Rate 250 g/ha, Preemergence) was 0. For the same molecule, the “Plant response rating, Blackgrass” value ([14]; Rate 500 g/ha, Postemergence) was 1, the “Plant response rating, Blackgrass” value ([14]; Rate 500 g/ha, Preemergence) was 0 and the “Plant response rating, Wild oats” value (wild oat (Avena fatua); Rate 125 g/ha, Postemergence) was 0. For the same molecule, the “Wild oats plant response rating” value (wild oat (Avena fatua); Rate 125 g/ha, Preemergence) was 0, the “Plant response rating, Wild oats” value (wild oat (Avena fatua); Rate 250 g/ha, Postemergence) was 0 and the “Plant response rating, Wild oats” value (wild oat (Avena fatua); Rate 250 g/ha, Preemergence) was 0. The “Plant response rating, Wild oats” value (wild oat (Avena fatua); Rate 500 g/ha, Postemergence) was 0, the “Plant response rating, Wild oats” value (wild oat (Avena fatua); Rate 500 g/ha, Preemergence) was 0 and the “Plant response rating, Crabgrass” value ([15]; Rate 125 g/ha, Postemergence) was 0. For the same molecule, the “Crabgrass plant response rating” value ([15]; Rate 125 g/ha, Preemergence) was 0, the “Plant response rating, Crabgrass” value ([15]; Rate 250 g/ha, Postemergence) was 2 and the “Plant response rating, Crabgrass” value ([15]; Rate 250 g/ha, Preemergence) was 1. The “Plant response rating, Crabgrass” value ([15]; Rate 500 g/ha, Postemergence) was 2, the “Plant response rating, Crabgrass” value ([15]; Rate 500 g/ha, Preemergence) was 2 and the “Plant response rating, Soybean” value (soybean (Glycine max); Rate 125 g/ha, Postemergence) was 3. For the same molecule, the “Soybean plant response rating” value (soybean (Glycine max); Rate 125 g/ha, Preemergence) was 0, the “Plant response rating, Soybean” value (soybean (Glycine max); Rate 250 g/ha, Postemergence) was 3 and the “Plant response rating, Soybean” value (soybean (Glycine max); Rate 250 g/ha, Preemergence) was 0. The “Plant response rating, Soybean” value (soybean (Glycine max); Rate 500 g/ha, Postemergence) was 5 and the “Plant response rating, Soybean” value (soybean (Glycine max); Rate 500 g/ha, Preemergence) was 0.

From US6525001B1, “Substituted pyrimidine and pyridine herbicides” (Mid-American Commercialization Corporation, priority 1997, dated 2003)
